Holding throughout (experiment): growth of human tumour cells (NCI), 48 h
Test [1] deals with SK-MEL-5.
In test [2] the test system is OVCAR-4.
Test [3] has as its system SR.
The test system of test [4] is HOP-92.
The subject of test [5] is HCT-116.
Test [6] concerns LXFL 529.
Test [7] concerns OVCAR-8.
The subject of test [8] is SF-268.
The subject of test [9] is RPMI-8226.
The test system of test [10] is COLO 205.
Test [11] relates to A498.
Test [12] relates to CAKI-1.
Test [13] concerns HCT-15.
The test system of test [14] is HOP-62.
Test [15] deals with NCI-H522.
Test [16] deals with IGROV-1.
Test [17] deals with M14.
Test [18] deals with UACC-257.

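48-hour exposure; five concentrations; linearly interpolated endpoints. The concentration for 50% growth inhibition is given as GI50.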 Calls of active or inactive are those of the source. Cut-off read from the data, not from the text of the source: active = GI50 up to about 1.1 µM and inactive = higher.

`CCOC(=O)C1C(=O)C(=O)N2CCc3c([nH]c4ccccc34)C12` (stereo not given): the GI50 in [1], in test [2], in test [3], in [4], in test [5] and in test [6] was > 100 µM (inactive) in each case. For the same compound, the GI50 in test [7], in test [8], in test [9], in test [10], in [11] and in test [12] was > 100 µM (inactive) each time. For the same compound, the GI50 was over 100 µM in [13]; > 100 µM (inactive) in test [14]; > 100 µM (inactive) in test [15]; > 100 µM (inactive) in test [16]; > 100 µM (inactive) in [17].
In the case of `Cc1cn(C2CC(CCCO)C(CO)O2)c(=O)[nH]c1=O` (stereo not given), the GI50 in test [1], in test [2], in test [3], in [5], in [6] and in test [7] was > 100 µM (inactive) in each case. Further, the GI50 in [8], in test [9], in test [10], in [18], in [11] and in test [12] was > 100 µM (inactive) in each case. The GI50 in test [13] is over 100 µM; in [14], > 100 µM (inactive); in test [15], > 100 µM (inactive); in test [16], > 100 µM (inactive); in [17] it was > 100 µM (inactive).
On to `CN1C(=O)c2cccc3c([N+](=O)[O-])ccc(c23)C1=O`, for which the GI50 in [1] is 18.3 µM (inactive); in test [2] it was 13 µM (inactive); in test [3] it was 3.25 µM (inactive); in test [4], 6.52 µM (inactive); in [5], 6.52 µM (inactive); in test [6], 1.46 µM (inactive). Besides, the GI50 in [7] was 6.01 µM (inactive); in test [8], 9.68 µM (inactive); in [10] it was 7.26 µM (inactive); in [18], 9.53 µM (inactive); in test [11] it was 2.65 µM (inactive); in [12], 2.45 µM (inactive). The GI50 is 2.84 µM in test [13]; 12.1 µM (inactive) in [14]; 1.36 µM (inactive) in test [15]; 3.49 µM (inactive) in [16]; 11.1 µM (inactive) in test [17].
`C[C@H]1[C@H](C)CC[C@]2(C(=O)O)CCC3(COC(=O)/C=C/c4ccc(O)cc4)C(=CCC4[C@@]5(C)CC[C@H](O)C(C)(C)C5CC[C@]43C)[C@H]12` (stereo not given in full): the GI50 in [1] was 11 µM (inactive); in test [2] it was 5.96 µM (inactive); in [3] it was 3.91 µM (inactive); in [5], 3.62 µM (inactive); in [6], 3.83 µM (inactive); in [7] it was 4.51 µM (inactive). In addition, the GI50 in [8] was 4.67 µM (inactive); in test [9], 5.05 µM (inactive); in test [10] it was 3.99 µM (inactive); in test [18], 14.7 µM (inactive); in [11], 4.06 µM (inactive); in test [12], 2.85 µM (inactive). The GI50 in test [13] is 4.62 µM; in [14] it was 7.82 µM (inactive); in test [15], 3.78 µM (inactive); in [16], 3.46 µM (inactive); in [17], 11.2 µM (inactive).
For `Cc1ccc(/C=C(\C#N)c2ccccc2)cc1`, the GI50 in test [1], in [2], in test [3], in [4], in [5] and in test [6] was > 100 µM (inactive) throughout. The GI50 in [7], in test [8], in test [9], in test [10], in [18] and in test [11] was > 100 µM (inactive) in each case. Also, the GI50 in [12] is > 100 µM (inactive); in [13] it was over 100 µM; in test [14], > 100 µM (inactive); in [15], > 100 µM (inactive); in test [16], > 100 µM (inactive); in test [17] it was > 100 µM (inactive).
For the compound `CC(C)C(CCOS(=O)(=O)O)CCC(C)[C@H]1[C@@H](O)C(O)C2[C@]3(O)C[C@@H](O)C4(O)C[C@@H](O)CC[C@]4(C)C3CC[C@@]21C` (stereo not given in full), the GI50 in test [1], in test [2], in test [3], in test [4], in [5] and in test [6] was > 100 µM (inactive) each time. Besides, the GI50 in [7] is > 100 µM (inactive); in test [8] it was > 100 µM (inactive); in test [9], > 100 µM (inactive); in test [10], > 100 µM (inactive); in test [12] it was > 100 µM (inactive); in test [13], over 100 µM. The GI50 in [14], in [15], in test [16] and in test [17] was > 100 µM (inactive) each time.
As for `Cc1ccc(S(=O)(=O)ON/N=C2/C3OC3[C@@H]3CCCC[C@H]23)cc1` (stereo not given in full), the GI50 in [2] was > 100 µM (inactive); in test [3] it was > 100 µM (inactive); in test [4] it was > 100 µM (inactive); in [6], > 100 µM (inactive); in test [7] it was 0.507 µM (active); in [8], > 100 µM (inactive). In addition, the GI50 was > 100 µM (inactive) in [9]; > 100 µM (inactive) in [10]; 0.692 µM (active) in test [18]; > 100 µM (inactive) in test [12]; over 100 µM in test [13]; > 100 µM (inactive) in test [14]. Further, the GI50 in test [15], in test [16] and in [17] was > 100 µM (inactive) each time.
`c1ccc2nc(-c3ccc4c(c3)OCO4)ccc2c1`: the GI50 was 24.8 µM (inactive) in test [2]; 16.7 µM (inactive) in [3]; 2.8 µM (inactive) in [4]; 22.5 µM (inactive) in [6]; 43.5 µM (inactive) in [7]; 37.7 µM (inactive) in test [8]. The GI50 in test [10] is 74.6 µM (inactive); in [18] it was 15.6 µM (inactive); in test [12] it was 28.8 µM (inactive); in [14] it was 22 µM (inactive); in [15] it was 31.8 µM (inactive); in test [17] it was 54.2 µM (inactive).
Turning to `NC(CCC(=O)NC(CSC(=O)N(O)c1ccccc1)C(=O)NCC(=O)O)C(=O)O` (stereo not given), the GI50 in test [1], in test [2], in test [3], in test [4], in [5] and in test [6] was > 1000 µM (inactive) throughout. For the same compound, the GI50 in [7], in test [8], in [10], in test [18], in test [11] and in test [12] was > 1000 µM (inactive) throughout. The GI50 was over 1000 µM in [13]; > 1000 µM (inactive) in test [14]; > 1000 µM (inactive) in test [15]; > 1000 µM (inactive) in test [16]; > 1000 µM (inactive) in test [17].
For the compound `OC1CC(O)O[C@H](c2ccccc2)C1` (stereo not given in full), the GI50 in test [1], in test [2], in test [3], in test [4], in test [5] and in test [6] was > 100 µM (inactive) throughout. Besides, the GI50 in [7] was 85.3 µM (inactive); in test [8] it was > 100 µM (inactive); in test [9] it was > 100 µM (inactive); in [10], > 100 µM (inactive); in test [18], > 100 µM (inactive); in test [11], > 100 µM (inactive). Further, the GI50 in [12] is > 100 µM (inactive); in test [13], over 100 µM; in test [14], > 100 µM (inactive); in test [16] it was > 100 µM (inactive); in test [17] it was > 100 µM (inactive).
As to `CN(C)CC/C(=N\Nc1c(F)c(F)c(F)c(F)c1F)c1ccccc1`, the GI50 in [1] is 14.2 µM (inactive); in [2], 16.9 µM (inactive); in [3], 17.6 µM (inactive); in test [5] it was 86.9 µM (inactive); in test [6], 42.3 µM (inactive); in test [7], 93.3 µM (inactive). In addition, the GI50 in test [8] was 90.4 µM (inactive); in test [9] it was 19 µM (inactive); in [10], > 100 µM (inactive); in test [18] it was 24.1 µM (inactive); in [11], 74.5 µM (inactive); in test [13], 35.3 µM. Besides, the GI50 is > 10 µM (inactive) in test [14], 14.3 µM (inactive) in test [15], 22.2 µM (inactive) in test [16] and > 10 µM (inactive) in [17].
For the compound `Cc1cc(C)nc(NS(=O)(=O)c2ccc(Nc3c4ccccc4nc4c(C(=O)N5CCN(CCO)CC5)cccc34)cc2)n1`, the GI50 in test [1], in [2], in [3], in test [4], in test [5] and in [6] was > 100 µM (inactive) in each case. The GI50 in [7], in test [8], in [10], in [18], in test [11] and in test [12] was > 100 µM (inactive) throughout. The GI50 in test [13] is over 100 µM; in test [14], > 100 µM (inactive); in [16], > 100 µM (inactive); in [17] it was > 100 µM (inactive).

(Values after ChEMBL document CHEMBL1201862, “PubChem BioAssay data set” (2004).)
